From ChEMBL document CHEMBL1159289, “Enzyme inhibitors: new and known polybrominated phenols and diphenyl ethers from four Indo-Pacific Dysidea sponges” (J Nat Prod, 1995)
The source made the active and inactive calls. The calls are words filed in the database; no cut-off is given here.

What was measured:
[1] = Inhibition of inosine monophosphate dehydrogenase; parameters: unit not given here
[2] = Inhibition of matrix metalloprotease
[3] = target: GMP synthase [glutamine-hydrolyzing] (Homo sapiens) (UniProt P49915); assay: Inhibition of GMPS in human A3.01 cells at 50 uM; assay type: cell-based
Sequence of GMP synthase [glutamine-hydrolyzing] (Homo sapiens) (P49915 whole entry): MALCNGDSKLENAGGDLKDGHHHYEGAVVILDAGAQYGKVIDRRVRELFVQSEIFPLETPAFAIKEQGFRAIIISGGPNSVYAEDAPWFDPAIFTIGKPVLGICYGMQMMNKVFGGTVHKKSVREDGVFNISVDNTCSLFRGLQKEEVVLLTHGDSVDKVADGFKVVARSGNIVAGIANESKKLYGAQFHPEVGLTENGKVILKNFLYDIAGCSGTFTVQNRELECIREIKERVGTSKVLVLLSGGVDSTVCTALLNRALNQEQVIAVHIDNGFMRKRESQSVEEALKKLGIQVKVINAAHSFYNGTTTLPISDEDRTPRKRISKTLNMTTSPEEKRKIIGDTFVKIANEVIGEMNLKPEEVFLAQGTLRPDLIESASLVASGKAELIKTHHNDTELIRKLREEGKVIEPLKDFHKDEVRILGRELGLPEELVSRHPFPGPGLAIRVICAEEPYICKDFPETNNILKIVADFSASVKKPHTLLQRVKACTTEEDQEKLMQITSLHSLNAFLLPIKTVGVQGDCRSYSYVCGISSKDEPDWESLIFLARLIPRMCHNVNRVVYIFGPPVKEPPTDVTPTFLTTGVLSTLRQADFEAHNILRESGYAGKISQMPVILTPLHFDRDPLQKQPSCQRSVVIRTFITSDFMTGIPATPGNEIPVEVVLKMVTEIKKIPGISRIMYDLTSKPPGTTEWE

[4] = target: T1, Polyunsaturated fatty acid lipoxygenase ALOX15 (Homo sapiens, UniProt P16050); assay: Inhibition of 15-lipoxygenase
T1 sequence (P16050 whole entry): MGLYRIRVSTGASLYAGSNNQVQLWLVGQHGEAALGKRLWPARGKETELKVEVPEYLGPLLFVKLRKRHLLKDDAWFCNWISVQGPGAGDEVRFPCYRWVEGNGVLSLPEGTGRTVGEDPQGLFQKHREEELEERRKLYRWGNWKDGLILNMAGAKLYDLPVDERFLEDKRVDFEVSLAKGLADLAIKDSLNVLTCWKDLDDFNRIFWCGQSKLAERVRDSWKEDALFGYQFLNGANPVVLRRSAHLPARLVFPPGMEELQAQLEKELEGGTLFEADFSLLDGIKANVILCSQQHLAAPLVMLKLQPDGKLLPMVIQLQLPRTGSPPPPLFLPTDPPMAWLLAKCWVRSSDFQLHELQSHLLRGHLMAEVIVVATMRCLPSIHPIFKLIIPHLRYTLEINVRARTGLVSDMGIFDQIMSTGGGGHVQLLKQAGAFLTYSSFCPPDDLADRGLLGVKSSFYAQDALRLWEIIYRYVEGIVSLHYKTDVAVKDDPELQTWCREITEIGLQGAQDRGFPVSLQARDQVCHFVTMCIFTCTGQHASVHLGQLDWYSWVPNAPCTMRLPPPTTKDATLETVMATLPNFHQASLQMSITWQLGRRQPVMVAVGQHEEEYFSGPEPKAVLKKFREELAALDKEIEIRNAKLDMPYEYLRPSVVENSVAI

[5] = Inhibition of tyrosine-protein kinase pp60v-src
[6] = Inhibition of PKC
[7] = target: T2, Polyunsaturated fatty acid lipoxygenase ALOX15 (Homo sapiens) (UniProt P16050); assay: Inhibition of 15-lipoxygenase at 40 ug/ml; settings: at 40 µg/mL
T2 sequence (whole entry): T1 sequence (P16050 whole entry)

Oc1cc(Br)c(Br)c(Br)c1Oc1ccc(Br)cc1Br
EC50 [1]: 4
Activity [2]: inactive
inhibition [3]: 99%
IC50 [4]: 7.4 µM
Activity [5]: inactive

COc1c(Br)cc(Br)cc1Oc1c(O)cc(Br)cc1Br
Activity [5]: inactive

Oc1c(Br)cc(Br)cc1Oc1c(O)c(Br)c(Br)c(Br)c1Br
EC50 [1]: 2.79
Activity [2]: inactive
inhibition [3]: 96%
Activity [6]: inactive
IC50 [4]: 1.3 µM
Activity [5]: inactive

Oc1cc(Br)cc(Br)c1Oc1ccc(Br)cc1Br
EC50 [1]: 5.71
Activity [2]: inactive
inhibition [3]: 56%
Activity [5]: inactive

Oc1c(Oc2ccc(Br)cc2Br)cc(Br)c(Br)c1Br
EC50 [1]: 4.4
Activity [2]: inactive
inhibition [3]: 71%
IC50 [4]: 7.4 µM
Activity [5]: inactive

Oc1c(Br)cc(Br)cc1Oc1ccc(Br)cc1Br
Activity [5]: inactive

COc1cc(Br)cc(Br)c1Oc1cc(Br)cc(Br)c1O
Activity [5]: inactive

Oc1cc(Br)c(Br)c(Br)c1Oc1cc(Br)cc(Br)c1O
Activity [2]: inactive
inhibition [3]: 89%
Activity [5]: inactive

Oc1c(Br)cc(Br)cc1Oc1c(Br)cc(Br)c(Br)c1O
EC50 [1]: 7.8
Activity [2]: inactive
inhibition [3]: 70%
IC50 [4]: 2.5 µM
Activity [5]: inactive

Oc1cc(Br)cc(Br)c1Oc1c(O)cc(Br)c(Br)c1Br
inhibition [7]: 100%
